{"source": "patent US11957696B2", "about": "(Propella Therapeutics, Inc., priority 2021, dated 2024)", "assay": "Tissue uptake study: plasma and tissue concentrations of abiraterone and abiraterone decanoate after single IV or IM injection", "format": "in vivo, rats, strain CD [Crl:CD(SD)]", "conditions": "CD [Crl:CD(SD)], rat, intramuscular, 90 mg/kg", "experimental": "The objective of this study is to collect tissue samples for the determination of the uptake of abiraterone decanoate and abiraterone following intravenous (IV) and intramuscular (IM; abiraterone decanoate only) injection. Additionally, blood steroid levels also were evaluated.\nVehicle for IM injection: Corn oil with 10% benzyl alcohol (w/v) and 20% benzyl benzoate (w/v). The study followed the protocols described below.\nFor intramuscular injections, the test article and vehicle will be administered once as a single intramuscular dose on Day 1 to animals in Groups 1 and 3. Doses will be administered via bolus intramuscular injection into the biceps femoris on the hind legs. The Test article will be warmed at 35° C. (±5°) for at least 1 hour prior to dosing. Individual doses will be based on the most recent body weights.\nFor IV injections, the test article will be administered once on Day 1 as a single intravenous bolus injection to animals in Groups 2 and 4. The test article will be administered via the tail vein as a bolus intravenous injection (less than 2 minutes). Individual doses will be based on the most recent body weights.\nFor serum steroid analysis, blood samples were collected from animals in each study group at predose and at terminal necropsy according to the following protocol. Animals were designated for 72 hr and 168 hr necropsy, the animals will be fasted overnight before scheduled blood collections. Plasma samples will be used for ACTH level analysis. Serum samples will be used for LH level analysis and steroid level analysis. Plasma samples will also be collected at various time points and be analyzed for abiraterone decanoate and abiraterone. Representative samples of tissues will be collected and snap frozen and analyzed. Lung, Liver, Adrenal glands, Prostate, Testes (Sample 1 and 2) and lymph nodes tissues will be collected. Lymph node(s) draining administration site(s): Inguinal (Groups 1-4) and Iliac (Groups 1 and 3 only). Lymph node, mandibular and Lymph node mesenteric tissues will also be collected.", "note": "Like-named read-outs stand apart in the source and are kept apart here.", "data": [{"smiles": "CCCCCCCCCC(=O)O[C@H]1CC[C@@]2(C)C(=CC[C@@H]3[C@@H]2CC[C@]2(C)C(c4cccnc4)=CC[C@@H]32)C1", "note": "[Abiraterone Decanoate, abiraterone decanoate]", "values": [{"measurement": "concentration at 7 days", "setting": "iliac lymph node, read-out: Decanoate concentration, iliac lymph", "result": 91000, "unit": "ng/g"}, {"measurement": "concentration at 7 days", "setting": "inguinal lymph node, read-out: Decanoate concentration, Inguinal Lymph", "result": 254, "unit": "ng/g"}, {"measurement": "concentration at 7 days", "setting": "liver, read-out: Decanoate concentration, Liver", "result": 10.4, "unit": "ng/g"}, {"measurement": "concentration at 7 days", "setting": "lung, read-out: Decanoate concentration, Lung", "result": 735, "unit": "ng/g"}, {"measurement": "concentration at 7 days", "setting": "male, adrenal, read-out: Decanoate concentration, Adrenal", "result": 12.1, "unit": "ng/g"}, {"measurement": "concentration at 7 days", "setting": "male, plasma, read-out: Decanoate concentration, Plasma", "result": 3.1, "unit": "ng/mL"}, {"measurement": "concentration at 7 days", "setting": "male, prostate, read-out: Decanoate concentration, Prostate", "result": 0, "unit": "ng/g"}, {"measurement": "concentration at 7 days", "setting": "male, testes, read-out: Decanoate concentration, Testes", "result": 1.3, "unit": "ng/g"}]}]}
